Molecules are shown by their SMILES. A value given as a limit tells only on which side of the number the result lay.

The text below walks through data of patent US20260295053A1, “COMPOUNDS FOR DEGRADATION AND INHIBITION OF KRAS (G12D) PROTEIN” (Shenzhen Ionova Life Science Co., Ltd., priority 2023, published 2026).

One experiment deals with T1, KRAS (G12D) (Homo sapiens, UniProt P01116, G12D).
T1 construct: in-cell western with KRAS G12D antibody after 24 h
Description: KRAS (G12D) cellular degradation assay in AsPC-1 cells. Type of experiment: cell-based. The settings on record: 24 hours, antibody fluorescence (Odyssey CLX), DC50 half-maximal degradation concentration. The procedure, abridged: (§1)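 Proliferation IC50 comes from CellTiter Glo luminescence after 6 days' exposure of AsPC-1 (3,500 cells/well) to 1:3 dilutions from […] to 1.5 nM. KRAS G12D DC50 derives from in-cell immunofluorescence normalised to β-actin after 24 h treatment of near-confluent AsPC-1 cells over the same range.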

Another experiment deals with AsPC-1 cells. Description: AsPC-1 cell proliferation assay (CellTiter Glo). In kind it is cell-based. The conditions noted are these: Homo sapiens, ASPC1, 144 h, 6 days. Put shortly: as §1
(In general: In ATP-based viability assays light output follows the ATP content of the culture.)

T1 sequence (P01116 1-188 isoform P01116-2 G12D): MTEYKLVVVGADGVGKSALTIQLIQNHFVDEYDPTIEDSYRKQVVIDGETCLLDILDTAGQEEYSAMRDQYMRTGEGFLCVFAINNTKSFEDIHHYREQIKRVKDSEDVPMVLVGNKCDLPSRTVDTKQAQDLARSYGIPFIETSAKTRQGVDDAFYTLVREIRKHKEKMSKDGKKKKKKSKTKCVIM

For the compound `CCn1nccc1-c1ccc([C@@H](NC(=O)[C@@H]2C[C@@H](O)CN2C(=O)[C@H](C(C)C)n2cc(-c3ccc(COc4c(-c5c(C)c(F)cc6[nH]ncc56)c(C5CC5)cc5c(N6C[C@@H]7C[C@H]6CN7)nc(OC6CCC7(CC6)COC7)nc45)cc3)nn2)[C@H](C)O)cc1` [Example 87, (2S,4R)-1-((2S)-2-(4-(4-(((2-((2-oxaspiro[3.5]nonan-7-yl)oxy)-4-((1S,4S)-2,5-diazabicyclo[2.2.1]heptan-2-yl)-6-cyclopropyl-7-(6-fluoro-5-methyl-1H-indazol-4-yl)quinazolin-8-yl)oxy)methyl)phenyl)-1H-1,2,3-triazol-1-yl)-3-methylbutanoyl)-N-((1R,2S)-1-(4-(1-ethyl-1H-pyrazol-5-yl)phenyl)-2-hydroxypropyl)-4-hydroxypyrrolidine-2-carboxamide], the DC50 – broadly, the concentration at which degradation of the target reaches its halfway point – at KRAS (G12D) was < 10 nM. In the experiment with AsPC-1 cells, the IC50 (commonly the concentration needed to halve the response being measured) is < 10 nM.

For `CCn1nccc1-c1ccc([C@@H](NC(=O)[C@@H]2C[C@@H](O)CN2C(=O)[C@H](C(C)C)n2cc(-c3ccc(COc4c(-c5c(C)c(F)cc6[nH]ncc56)c(C5CCC5)cc5c(N6C[C@@H]7C[C@H]6CN7)nc(OC[C@H](C)OC)nc45)cc3)nn2)[C@H](C)O)cc1` [Example 88, (2S,4R)-1-((2S)-2-(4-(4-(((4-((1S,4S)-2,5-diazabicyclo[2.2.1]heptan-2-yl)-6-cyclobutyl-7-(6-fluoro-5-methyl-1H-indazol-4-yl)-2-((S)-2-methoxypropoxy)quinazolin-8-yl)oxy)methyl)phenyl)-1H-1,2,3-triazol-1-yl)-3-methylbutanoyl)-N-((1R,2S)-1-(4-(1-ethyl-1H-pyrazol-5-yl)phenyl)-2-hydroxypropyl)-4-hydroxypyrrolidine-2-carboxamide], on KRAS (G12D), the DC50 is < 10 nM. The IC50 with AsPC-1 cells was < 10 nM.

For `CCn1nccc1-c1ccc([C@@H](NC(=O)[C@@H]2C[C@@H](O)CN2C(=O)[C@H](C(C)C)n2cc(-c3ccc(COc4c(-c5c(C)c(F)c(F)c6[nH]ncc56)c(C5CC5)cc5c(N6C[C@@H]7C[C@H]6CN7)nc(OC[C@H](C)OC)nc45)cc3)nn2)[C@H](C)O)cc1` [Example 89, (2S,4R)-1-((2S)-2-(4-(4-(((4-((1S,4S)-2,5-diazabicyclo[2.2.1]heptan-2-yl)-6-cyclopropyl-7-(6,7-difluoro-5-methyl-1H-indazol-4-yl)-2-((S)-2-methoxypropoxy)quinazolin-8-yl)oxy)methyl)phenyl)-1H-1,2,3-triazol-1-yl)-3-methylbutanoyl)-N-((1R,2S)-1-(4-(1-ethyl-1H-pyrazol-5-yl)phenyl)-2-hydroxypropyl)-4-hydroxypyrrolidine-2-carboxamide], the DC50 on KRAS (G12D) is < 10 nM. Further, the IC50 with AsPC-1 cells was < 10 nM.

As for `CO[C@@H](C)COc1nc(N2C[C@@H]3C[C@H]2CN3)c2cc(C3CC3)c(-c3c(C)c(F)c(F)c4[nH]ncc34)c(OCc3ccc(-c4cn([C@H](C(=O)N5C[C@H](O)C[C@H]5C(=O)N[C@H](c5ccc(-c6scnc6C)cc5)[C@H](C)O)C(C)C)nn4)cc3)c2n1` [Example 90, (2S,4R)-1-((2S)-2-(4-(4-(((4-((1S,4S)-2,5-diazabicyclo[2.2.1]heptan-2-yl)-6-cyclopropyl-7-(6,7-difluoro-5-methyl-1H-indazol-4-yl)-2-((S)-2-methoxypropoxy)quinazolin-8-yl)oxy)methyl)phenyl)-1H-1,2,3-triazol-1-yl)-3-methylbutanoyl)-4-hydroxy-N-((1R,2S)-2-hydroxy-1-(4-(4-methylthiazol-5-yl)phenyl)propyl)pyrrolidine-2-carboxamide], the DC50 at KRAS (G12D) was < 10 nM. In the experiment with AsPC-1 cells, the IC50 was < 10 nM.

For the compound `CO[C@@H](C)COc1nc(N2C[C@@H]3C[C@H]2CN3)c2cc(C3CC3)c(-c3c(C)c(F)cc4[nH]ncc34)c(OCc3ccc(-c4cn([C@H](C(=O)N5C[C@H](O)C[C@H]5C(=O)N[C@H](C#Cc5cccc6ncsc56)CO)C(C)C)nn4)cc3)c2n1` [Example 92, (2S,4R)-1-((2S)-2-(4-(4-(((4-((1S,4S)-2,5-diazabicyclo[2.2.1]heptan-2-yl)-6-cyclopropyl-7-(6-fluoro-5-methyl-1H-indazol-4-yl)-2-((S)-2-methoxypropoxy)quinazolin-8-yl)oxy)methyl)phenyl)-1H-1,2,3-triazol-1-yl)-3-methylbutanoyl)-N—((R)-4-(benzo[d]thiazol-7-yl)-1-hydroxybut-3-yn-2-yl)-4-hydroxypyrrolidine-2-carboxamide], on KRAS (G12D), the DC50 is < 10 nM. In addition, the IC50 in the experiment with AsPC-1 cells is < 10 nM.

For `Cc1ncsc1-c1ccc([C@H](CO)NC(=O)[C@@H]2C[C@@H](O)CN2C(=O)[C@H](C(C)C)n2cc(-c3ccc(COc4c(-c5c(C)c(F)cc6[nH]ncc56)c(C5CC5)cc5c(N6C[C@@H]7C[C@H]6CN7)nc(OC6CC7COCC7C6)nc45)cc3)nn2)cc1` (stereo partly drawn) [Example 93, (2S,4R)-1-((2S)-2-(4-(4-(((4-((1S,4S)-2,5-diazabicyclo[2.2.1]heptan-2-yl)-6-cyclopropyl-7-(6-fluoro-5-methyl-1H-indazol-4-yl)-2-((hexahydro-1H-cyclopenta[c]furan-5-yl)oxy)quinazolin-8-yl)oxy)methyl)phenyl)-1H-1,2,3-triazol-1-yl)-3-methylbutanoyl)-4-hydroxy-N—((R)-2-hydroxy-1-(4-(4-methylthiazol-5-yl)phenyl)ethyl)pyrrolidine-2-carboxamide], the DC50 on KRAS (G12D) is < 10 nM. In addition, the IC50 in the experiment with AsPC-1 cells was < 10 nM.

In the case of `Cc1ncsc1-c1ccc([C@H](CO)NC(=O)[C@@H]2C[C@@H](O)CN2C(=O)[C@H](C(C)C)n2cc(-c3ccc(COc4c(-c5c(C)c(F)cc6[nH]ncc56)c(C5CCC5)cc5c(N6C[C@@H]7C[C@H]6CN7)nc(OC6CCOCC6)nc45)cc3)nn2)cc1` [Example 94, (2S,4R)-1-((2S)-2-(4-(4-(((4-((1S,4S)-2,5-diazabicyclo[2.2.1]heptan-2-yl)-6-cyclobutyl-7-(6-fluoro-5-methyl-1H-indazol-4-yl)-2-((tetrahydro-2H-pyran-4-yl)oxy)quinazolin-8-yl)oxy)methyl)phenyl)-1H-1,2,3-triazol-1-yl)-3-methylbutanoyl)-4-hydroxy-N—((R)-2-hydroxy-1-(4-(4-methylthiazol-5-yl)phenyl)ethyl)pyrrolidine-2-carboxamide], the DC50 at KRAS (G12D) is < 10 nM. Further, the IC50 in the experiment on AsPC-1 cells is < 10 nM.

Regarding `CCn1nccc1-c1ccc([C@@H](NC(=O)[C@@H]2C[C@@H](O)CN2C(=O)[C@H](C(C)C)n2cc(-c3ccc(COc4c(-c5c(C)c(F)cc6[nH]ncc56)c(C5CC5)cc5c(N6C[C@@H]7C[C@H]6CN7)nc(OC[C@H](C)OC)nc45)cc3)nn2)[C@@H](O)C(C)C)cc1` [Example 95, (2S,4R)-1-((2S)-2-(4-(4-(((4-((1S,4S)-2,5-diazabicyclo[2.2.1]heptan-2-yl)-6-cyclopropyl-7-(6-fluoro-5-methyl-1H-indazol-4-yl)-2-((S)-2-methoxypropoxy)quinazolin-8-yl)oxy)methyl)phenyl)-1H-1,2,3-triazol-1-yl)-3-methylbutanoyl)-N-((1R,2S)-1-(4-(1-ethyl-1H-pyrazol-5-yl)phenyl)-2-hydroxy-3-methylbutyl)-4-hydroxypyrrolidine-2-carboxamide], the DC50 on KRAS (G12D) was < 10 nM. For the same compound, the IC50 with AsPC-1 cells is < 10 nM.

Consider `Cc1ncsc1-c1ccc([C@@H](NC(=O)[C@@H]2C[C@@H](O)CN2C(=O)[C@H](C(C)C)n2cc(-c3ccc(COc4c(-c5c(C)c(F)cc6[nH]ncc56)c(C5CC5)cc5c(N6C[C@@H]7C[C@H]6CN7)nc(OC6CCC7(CC6)COC7)nc45)cc3)nn2)[C@H](C)O)cc1` [Example 96, (2S,4R)-1-((2S)-2-(4-(4-(((2-((2-oxaspiro[3.5]nonan-7-yl)oxy)-4-((1S,4S)-2,5-diazabicyclo[2.2.1]heptan-2-yl)-6-cyclopropyl-7-(6-fluoro-5-methyl-1H-indazol-4-yl)quinazolin-8-yl)oxy)methyl)phenyl)-1H-1,2,3-triazol-1-yl)-3-methylbutanoyl)-4-hydroxy-N-((1R,2S)-2-hydroxy-1-(4-(4-methylthiazol-5-yl)phenyl)propyl)pyrrolidine-2-carboxamide], for which the DC50 on KRAS (G12D) was < 10 nM. Further, the IC50 in the experiment with AsPC-1 cells was < 10 nM.

For `CO[C@@H](C)COc1nc(N2C[C@@H]3C[C@H]2CN3)c2cc(C3CC3)c(-c3c(C)c(F)c(Cl)c4[nH]ncc34)c(OCc3ccc(-c4cn([C@H](C(=O)N5C[C@H](O)C[C@H]5C(=O)N[C@@H](CO)c5ccc(-c6scnc6C)cc5)C(C)C)nn4)cc3)c2n1` [Example 97, (2S,4R)-1-((2S)-2-(4-(4-(((4-((1S,4S)-2,5-diazabicyclo[2.2.1]heptan-2-yl)-7-(7-chloro-6-fluoro-5-methyl-1H-indazol-4-yl)-6-cyclopropyl-2-((S)-2-methoxypropoxy)quinazolin-8-yl)oxy)methyl)phenyl)-1H-1,2,3-triazol-1-yl)-3-methylbutanoyl)-4-hydroxy-N—((R)-2-hydroxy-1-(4-(4-methylthiazol-5-yl)phenyl)ethyl)pyrrolidine-2-carboxamide], the DC50 at KRAS (G12D) is < 10 nM. In the experiment on AsPC-1 cells, the IC50 was < 10 nM.

As to `CO[C@@H](C)COc1nc(N2C[C@@H]3C[C@H]2CN3)c2cc(C3CC3)c(-c3c(C)c(F)cc4[nH]ncc34)c(OCc3ccc(-c4cn([C@H](C(=O)N5C[C@H](O)C[C@H]5C(=O)N[C@H](C#Cc5cccc(F)c5Cl)CO)C(C)C)nn4)cc3)c2n1` [Example 98, (2S,4R)-1-((2S)-2-(4-(4-(((4-((1S,4S)-2,5-diazabicyclo[2.2.1]heptan-2-yl)-6-cyclopropyl-7-(6-fluoro-5-methyl-1H-indazol-4-yl)-2-((S)-2-methoxypropoxy)quinazolin-8-yl)oxy)methyl)phenyl)-1H-1,2,3-triazol-1-yl)-3-methylbutanoyl)-N—((R)-4-(2-chloro-3-fluorophenyl)-1-hydroxybut-3-yn-2-yl)-4-hydroxypyrrolidine-2-carboxamide], the DC50 at KRAS (G12D) fell in the range of 10 to 100 nM. Also, the IC50 in the experiment with AsPC-1 cells was < 10 nM.
